PMC3906007, “Discovery of a Small Molecule Agonist of Phosphatidylinositol 3-Kinase p110α That Reactivates Latent HIV-1” (PLoS ONE, 2014)

Tests used:
[1] = biological target: T1, HDAC3 (Homo sapiens, UniProt O15379); assay: Fluorogenic HDAC activity assay, HDAC3 complexed with NCOR2; format: biochemical
T1 construct: purchased BPS Bioscience (San Diego, CA)
Procedure: The lysine deacetylase activity of HDACs 1, 2, 3, and 8 was assessed using the Fluorogenic HDAC Assay (BPS Bioscience, San Diego, CA) according to the manufacturer's instructions. […] All assays were carried out under steady-state conditions and the assay read-out was optimized for linearity both as a function of time and enzyme concentration. The formation of the fluorescent product was measured using a SpectraMax M2 Plate Reader (Molecular Devices, CA). The excitation and emission wavelengths were 360 nm and 450 nm, respectively.

[2] = tested on: T2, PI3K p110α; assay: PI3K activity assay (PIP3 production, Millipore kit) in combination with wortmannin, p110α; format: biochemical; details: recombinant purified enzyme; 100 nM wortmannin + 5 µM compound
T2 construct: purchased Millipore (Billerica, MA)
Procedure: The production of phosphatidylinositol (3,4,5)-triphosphate (PIP3) by the four class I PI3K isoenzymes (p110 α, β, γ, δ) was assessed using the PI3 Kinase Activity/Inhibitor Assay Kit (Millipore, Billerica, MA) according to the manufacturer's instructions. This assay works on the principle that the PH domain of the protein GRP-1 binds PIP3 with high affinity and specificity. This protein binds to the glutathione plate and captures either the PIP3 generated as part of the kinase reaction or the biotinylated-PIP3 tracer included in the kit. The captured biotinylated-PIP3 is detected using streptavidin-HRP conjugate and a colorimetric read out (OD 450).
The class I PI3Ks are heterodimeric enzymes formed by association of a p110 catalytic subunit with a p85 regulatory subunit. There are 4 variants of the p110 catalytic subunit designated p110α, β, δ or γ [22]. […] Briefly, in this assay the PIP3 generated as part of the kinase reaction or the biotinylated-PIP3 tracer included in the kit is captured on a glutathione plate via its interaction with the pleckstrin homology (PH) domain of the glutathione S-transferase (GST)-fusion protein general receptor for phosphoinositides-1 (GRP-1). The captured biotinylated-PIP3 is then detected using a streptavidin-HRP conjugate and a colorimetric read out.

[3] = tested on: latent HIV-1 in J89GFP cells; assay: Latent HIV-1 reactivation in J89GFP cells (EGFP positive cells, flow cytometry); format: cell-based
Procedure: Three different cell lines of HIV-1 latency were used in this study. These included J89GFP, U1 and ACH-2 cells. The J89GFP cells were a kind gift from Dr. David Levy. The ACH-2 and U1 cells were obtained through the AIDS Research and Reference Reagent Program, Division of AIDS, NIAID, NIH: Dr. Thomas Folks contributor [19]–[21]. Reactivation of latent HIV-1 in the J89GFP cells was measured by quantifying the percentage of EGFP positive cells using a BD FACScan flow cytometer with BD FACSDiva software (BD Biosciences, CA), as described previously. Reactivation of latent HIV-1 in the ACH-2 and U 1 cells was assessed by quantitative analysis of initiated and elongated HIV-1 transcripts, as described previously. All 3 cell lines were maintained in RMPI 1640 medium supplemented with 10% FBS, 0.3 mg/mL L-glutamine, 100 U/mL penicillin, and 100 µg/mL streptomycin at 37°C in humidified air with 5% CO2.
To identify novel activators of latent HIV-1 expression, we screened 640 pure natural products from the TimTec Natural Compound Library at a concentration of 10 ng/mL for 24 hrs in a Jurkat cell (J89GFP) model of latency for their cytotoxicity and ability to reactivate HIV-1 expression. J89GFP cells contain a stably integrated, full-length HIV-1 provirus with an enhanced GFP (EGFP) reporter incorporated into the viral genome. The viral genome in these cells is transcriptionally silent. However, upon stimulation viral transcription is activated and viral expression can be measured by EGFP production. […].

[4] = tested on: PI3K p110γ RNA; assay: PI3K isoform RNA transcript levels in J89GFP cells, p110γ; format: cell-based; details: 5 µM
[5] = Cytotoxicity (MTT or CellTiter 96), Jurkat; format: cell-based; details: human, Jurkat cells; 24 hour incubation; mean ± SD, 3 replicates
Procedure: Following a 24 hour incubation period, cell viability was measured using either the MTT (Roche Applied Science, Indianapolis, IN) or CellTiter 96 proliferation (Promega, WI) assay.

T1 sequence (O15379 whole entry): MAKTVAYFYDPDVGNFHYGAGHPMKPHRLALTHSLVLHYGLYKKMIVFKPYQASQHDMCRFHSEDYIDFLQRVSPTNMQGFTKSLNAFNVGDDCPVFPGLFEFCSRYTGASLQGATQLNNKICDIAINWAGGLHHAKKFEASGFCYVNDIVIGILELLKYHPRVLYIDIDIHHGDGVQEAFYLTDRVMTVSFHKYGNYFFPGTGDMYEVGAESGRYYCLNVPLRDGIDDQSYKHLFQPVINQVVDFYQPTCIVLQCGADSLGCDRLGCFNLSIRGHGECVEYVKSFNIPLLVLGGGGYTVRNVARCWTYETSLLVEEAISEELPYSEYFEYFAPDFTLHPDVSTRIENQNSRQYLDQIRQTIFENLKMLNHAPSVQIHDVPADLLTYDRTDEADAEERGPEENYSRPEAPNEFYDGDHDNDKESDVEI
T1 sequence (Q9Y618 395-489 partner limits assumed): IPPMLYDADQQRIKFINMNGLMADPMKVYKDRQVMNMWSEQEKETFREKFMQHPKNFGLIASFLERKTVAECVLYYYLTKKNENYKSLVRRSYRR

For `COc1cc2c(cc1OC)-c1c(OC)c(OC)cc3ccnc(c13)C2=O` [Compound 57704, 1,2,9,10-tetramethoxy-7H-dibenzo[de,g]quinolin-7-one], the IC50 [1] was greater than 50 µM, the “Agonist activity: effect on inhibition of PI3K p110α by wortmannin” value [2] was “abrogated the ability of wortmannin to inhibit PI3K p110α” and the EC50 ([3]; Human immunodeficiency virus 1, read-out: EC50, reactivation of latent HIV-1 gene expression) was 10.3 ± 1.2 µM. The “Latent HIV-1 reactivation activity in presence of PI3K inhibitor wortmannin” value ([3]; J89GFP, 20 nM wortmannin) was “significantly attenuated”, the “Latent HIV-1 reactivation activity in presence of p38 MAPK inhibitor SB203580” value ([3]; J89GFP, 50 nM SB203580) was “unaffected” and the “Latent HIV-1 reactivation activity in presence of Akt Inhibitor IV” value ([3]; J89GFP, 500 nM Akt Inhibitor IV) was “significantly attenuated”. The “Latent HIV-1 reactivation activity in presence of PKC inhibitor Gö6983” value ([3]; J89GFP, 500 nM Go6983) was “unaffected”, the “Latent HIV-1 reactivation activity in presence of JNK inhibitor SP600125” value ([3]; J89GFP, 1 µM SP00125) was “unaffected” and the “Latent HIV-1 reactivation activity in presence of NFAT/calcineurin inhibitor cyclosporin A” value ([3]; J89GFP, 1 µM cyclosporin A) was “unaffected”. The “Latent HIV-1 reactivation activity in presence of PI3K p110γ inhibitor AS-605240” value ([3]; J89GFP, 2 µM AS-605240) was “moderately enhanced”, the “Latent HIV-1 reactivation activity in presence of PI3K p110α specific inhibitor PI-103” value ([3]; J89GFP, 2 µM PI-103) was “significantly attenuated” and the “Latent HIV-1 reactivation activity in presence of PI3K p110β inhibitor TGX-221” value ([3]; J89GFP, 2 µM TGX-221) was “moderately enhanced”. For the same molecule, the “Latent HIV-1 reactivation activity in presence of PI3K p110δ inhibitor IC87114” value ([3]; J89GFP, 5 µM IC87114) was “not reduced”, the “Latent HIV-1 reactivation activity in presence of pan PI3K inhibitor LY 294002” value ([3]; J89GFP, 15 µM LY294002) was “significantly attenuated” and the “Latent HIV-1 reactivation activity in presence of NF-κB inhibitor 6-amino-4-(4-phenoxyphenylethylamino) quinazoline” value ([3]; J89GFP, 20 µM NF-κB activation inhibitor) was “significantly attenuated”. For the same molecule, the “Effect on PI3K p110γ RNA transcript levels” value [4] was “no effect” and the CC50 at 24 h [5] was 92.9 ± 7.5 µM.
